Assay results as given in patent US6410523B1, “Vitamin D derivatives substituted at the 2beta-position” (Chugai Seiyaku Kabushiki Kaisha, priority 1998, dated 2002).

Columns and labels:
[1] = molecular target: T1, rat plasma vitamin D binding protein (Rattus norvegicus, UniProt P04276); experiment: Affinity for rat plasma vitamin D binding protein (3H-25-hydroxyvitamin D3 competition, dextran coated charcoal); conditions: for 50% binding ability: amount of the test compound providing B/B0=0.5, 3H-25-hydroxyvitamin D3 as radioligand
T1 construct: from tissue; host or cells: rat plasma
T1 sequence (P04276 17-476): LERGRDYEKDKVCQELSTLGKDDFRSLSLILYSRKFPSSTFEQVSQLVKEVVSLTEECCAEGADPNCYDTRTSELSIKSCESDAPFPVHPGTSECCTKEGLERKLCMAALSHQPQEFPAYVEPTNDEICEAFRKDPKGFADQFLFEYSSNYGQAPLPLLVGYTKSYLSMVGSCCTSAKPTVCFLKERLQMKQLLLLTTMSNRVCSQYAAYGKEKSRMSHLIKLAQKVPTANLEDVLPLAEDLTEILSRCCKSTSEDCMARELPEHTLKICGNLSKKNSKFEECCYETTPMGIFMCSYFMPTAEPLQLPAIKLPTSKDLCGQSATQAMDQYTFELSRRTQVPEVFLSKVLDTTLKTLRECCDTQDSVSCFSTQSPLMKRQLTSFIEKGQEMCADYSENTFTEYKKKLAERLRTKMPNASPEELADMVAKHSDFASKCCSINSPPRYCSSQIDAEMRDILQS
Method: A solution of a chick small intestine vitamin D receptor, or a solution of a rat plasma vitamin D binding protein was added, and the resulting mixture was left to stand. Then, a dextran coated charcoal solution was added, and the mixture was left to stand in ice cooling, and centrifuged. To the supernatant, a liquid scintillator was added, and the mixture was measured for radioactivity. B/B0 (B=the value of radioactivity measured upon addition of the test compound, B0=the value of radioactivity measured without addition of the test compound) was calculated to find the concentration of the test compound at which B/B0=0.5.
(§1) (50% binding ability refers to the amount of the test compound providing B/B0=0.5)

[2] = molecular target: T2, chick small intestine vitamin D receptor (Gallus gallus, UniProt O42392); experiment: Affinity for chick small intestine vitamin D receptor (3H-1α,25-dihydroxyvitamin D3 competition, dextran coated charcoal); format: binding; conditions: amount of the test compound providing B/B0=0.5; 3H-1α,25-dihydroxyvitamin D3 as radioligand
T2 construct: A solution of a chick small intestine vitamin D receptor; from tissue; host or cells: chick small intestine
T2 sequence (O42392 1-451): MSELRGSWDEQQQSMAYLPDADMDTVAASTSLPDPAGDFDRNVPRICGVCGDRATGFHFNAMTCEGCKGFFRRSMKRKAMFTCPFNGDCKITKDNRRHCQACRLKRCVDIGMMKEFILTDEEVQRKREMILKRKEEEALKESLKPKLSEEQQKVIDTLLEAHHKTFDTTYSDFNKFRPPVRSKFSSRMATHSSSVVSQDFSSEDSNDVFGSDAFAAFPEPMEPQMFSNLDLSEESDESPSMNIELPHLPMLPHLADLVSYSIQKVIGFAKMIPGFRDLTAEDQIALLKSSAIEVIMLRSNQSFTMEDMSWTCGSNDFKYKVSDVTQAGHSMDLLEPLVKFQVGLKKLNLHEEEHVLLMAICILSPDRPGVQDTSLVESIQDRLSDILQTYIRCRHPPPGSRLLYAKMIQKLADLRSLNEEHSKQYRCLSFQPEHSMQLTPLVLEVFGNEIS
Method: A solution of a chick small intestine vitamin D receptor, or a solution of a rat plasma vitamin D binding protein was added, and the resulting mixture was left to stand. Then, a dextran coated charcoal solution was added, and the mixture was left to stand in ice cooling, and centrifuged. To the supernatant, a liquid scintillator was added, and the mixture was measured for radioactivity.
as §1

C=C1CC[C@H](O)C/C1=C/C=C1\CCC[C@]2(C)[C@@H]([C@H](C)CCCC(C)(C)O)CC[C@@H]12 [25-Hydroxyvitamin D3, 25-hydroxyvitamin D3]
Ratio ([1]; affinity relative to 1,25-dihydroxyvitamin D3 = 1): 129 | 50% binding ability [1]: 0.209 ng

C=C1/C(=C\C=C2/CCC[C@@]3(C)C2CC[C@@H]3[C@H](C)CCCC(C)(C)O)CC(O)C(OCCC(=O)OC)C1O (stereo partly drawn) [Compound 2, 2β-(2-methoxycarbonylethyloxy)-1α, 3β,25-trihydroxy-9,10-secocholesta-5,7,10(19)-triene]
50% binding ability [2]: 0.455 ng | 50% binding ability [1]: 4 ng
